Source: publication PMC9403987 (Frontiers in Oncology, 2022)

Key:
BRL-3a = assay: Cell proliferation assay; type: cell-based, Rattus norvegicus; conditions: liver, normal, 72 hours
Protocol: (§1) To quantify cell proliferation, either the nuclei of live cells were counted following staining with 4’,6-diamidino-2-phenylindole (DAPI; Sigma-Aldrich, Burlington, MA, USA), or metabolically active cells were detected using a CellTiter-Glo assay (Promega Corporation, Madison, WI, USA). Cells from a range of human and mammalian tumor cell lines (American Type Culture Collection, Manassas, VA, USA) were seeded at 4000 cells per well in 100 μL of culture medium in a 96-well plate and incubated overnight at 37°C with 5% CO2. […] In the DAPI staining method, cells were washed using 1× phosphate-buffered saline (PBS; Gibco Thermo Fisher Scientific, Waltham, MA, USA), fixed with 4% formaldehyde, permeabilized with 0.2% Triton X-100 (Sigma-Aldrich), washed again, and stained with 1 μg/mL DAPI to visualize cell nuclei. Cells were washed with 1× PBS three times, and 100 μL 1× PBS was added to each well. Plates were scanned using an IN Cell Analyzer 2200 (GE Healthcare Life Sciences, Chicago, IL, USA) and the number of cells per well was recorded. In the CellTiter-Glo assay, 60 μL of CellTiter-Glo luminescent solution was added to each well after incubation with the test compounds, and the assay plate was scanned using a Tecan Infinite M1000 PRO microplate reader (Tecan Group AG, Männedorf, Switzerland) to record luminescent signals.

U87-luc tumor cells = assay: Orthotopic U87-luc glioblastoma xenograft; type: in vivo, BALB/c nude mice; conditions: for TGI (%) / Increase in median survival time (%): 42 days; for TGI (%): measured day 21, bioluminescence; for Increase in median survival time (%): versus vehicle group
Protocol: (§2) The efficacy of GLR2007 was evaluated in human GBM and breast cancer orthotopic cell-line-derived xenografts in NOD/SCID mice (Shanghai Lingchang Biotechnology Co. Ltd, Shanghai, China) and BALB/c nude mice (Shanghai Sino-British SIPPR/BK Laboratory Animal Co. Ltd, Shanghai, China), and human lung, colorectal, and liver cancer subcutaneous cell-line-derived xenografts in BALB/c nude mice (Nanjing University National Resource Center, Nanjing, China, or Beijing Anikeeper Biotech Co., Beijing, China). Mice were maintained in humidity- and temperature-controlled conditions with food and water available ad libitum.
In a GBM orthotopic xenograft study, female BALB/c nude mice were inoculated intracranially at 6–8 weeks old with 3×10^5 U87-luc tumor cells plus Matrigel (Corning Life Sciences, Tewksbury, MA, USA) in a 4:1 ratio in PBS at the right frontal lobe. Tumor growth was quantified using intraperitoneal administration of 150 mg/kg luciferin to anesthetized mice, and tumor bioluminescence was measured using an IVIS Lumina II imaging system (PerkinElmer Inc.). In one study, mice were randomized at day 6 after tumor implantation (mean bioluminescence of 2.81×10^7 photons/sec), and in the other, mice were randomized at day 14 or day 15 (mean bioluminescence of 7.49×10^6 photons/sec).
Statistical analysis of differences in mean tumor volume among groups was conducted via an independent samples t-test or one-way analysis of variance (ANOVA; two-sided Dunnett’s test). For comparison among three or more groups, a one-way ANOVA was performed. Multiple comparison procedures were applied after ANOVA when significant F-statistics (ratio of treatment variance to error variance) were obtained. Comparisons between groups were carried out using the Games test. P<0.05 was considered to be statistically significant. Survival times were analyzed using the Kaplan–Meier method, with curves constructed for each group and the log-rank (Mantel–Cox) test used to compare survival curves between groups. Body weight change was calculated based on the weight on the first day of dosing.

NCI-H1975 = assay: Subcutaneous NCI-H1975 non-small cell lung cancer xenograft; type: in vivo, BALB/c nude mice; conditions: 22 days, measured day 16
Protocol: as §2, with “libitum. For subcutaneous models, female BALB/c nude mice were inoculated at 4–8 weeks old with 3×10^6–1×10^7 tumor cells (see Table 1 for xenograft model cell types) in the right flank for tumor development. Randomization was performed when the mean tumor volume reached 118–171 mm^3.” for “libitum.”

COLO 205 = assay: Subcutaneous COLO 205 colorectal cancer xenograft; type: in vivo, BALB/c nude mice; conditions: 26 days, measured day 25
Protocol: as §2, with “libitum. For subcutaneous models, female BALB/c nude mice were inoculated at 4–8 weeks old with 3×10^6–1×10^7 tumor cells (see Table 1 for xenograft model cell types) in the right flank for tumor development. Randomization was performed when the mean tumor volume reached 118–171 mm^3.” for “libitum.”

LI1088 = assay: Subcutaneous LI1088 liver cancer xenograft; type: in vivo, BALB/c nude mice; conditions: 25 mg/kg daily oral, 28 days, measured day 25
Protocol: as §2, with “libitum. For subcutaneous models, female BALB/c nude mice were inoculated at 4–8 weeks old with 3×10^6–1×10^7 tumor cells (see Table 1 for xenograft model cell types) in the right flank for tumor development. Randomization was performed when the mean tumor volume reached 118–171 mm^3.” for “libitum.”

[1] = mouse, in vivo, po, 30 mg/kg; cited from earlier work
CT26.WT = assay: Cell proliferation assay; type: cell-based, Mus musculus; conditions: colorectal carcinoma, 72 hours
Protocol: as §1

Row | SMILES | IC50 (BRL-3a; Rattus norvegicus) [nM] | TGI (%) (U87-luc tumor cells; 150 mg/kg daily oral) | Increase in median survival time (%) (U87-luc tumor cells; 150 mg/kg daily oral) | TGI (%) (NCI-H1975; 25 mg/kg daily oral) | TGI (%) (COLO 205; 25 mg/kg daily oral) | TGI (%) (LI1088) | Kp,uu [1] | IC50 (CT26.WT) [nM] | IC50 (BRL-3a) [nM] | TGI (%) (U87-luc tumor cells; 12.5 mg/kg daily oral) | Increase in median survival time (%) (U87-luc tumor cells; 12.5 mg/kg daily oral) | Weight loss, GLR2007 versus abemaciclib groups (U87-luc tumor cells; orthotopic U87-luc xenograft mice treated for 42 days) | TGI (%) (NCI-H1975; 10 mg/kg daily oral) | TGI (%) (COLO 205; 5 mg/kg daily oral)
1 | CCN1CCN(Cc2ccc(Nc3ncc(F)c(-c4cc(F)c5nc(C)n(C(C)C)c5c4)n3)nc2)CC1 [Abemaciclib, abemaciclib, reference compound] | 10000 | 79.0 | 54.4 | 6.9 | 57.7 | 22.4 | 0.03 |  |  |  |  |  |  | 
2 | CC1=Nc2c(F)cc(-c3nc(Nc4ccc(C5CCN(C)CC5)cn4)ncc3F)cc2C12CCCC2 [GLR2007] |  |  |  | 50.0 | 72.2 | 57.7 |  | 2020 | 1870 | 86.3 | 50.0 | comparable | 27.6 | 42.6
